{"source": "patent US20110118236A1", "about": "“HETEROCYCLIC COMPOUND” (priority 2008, published 2011)"}
{"molecular_target": "T1, AMPA receptor (human GluR1 flip/stargazin expressed in CHO-K1 cells) (Homo sapiens, UniProt P42261)", "T1 construct": "expressed in transfected cells; host or cells: CHO-K1", "T1 sequence (P42261 19-906 isoform P42261-2 limits assumed)": "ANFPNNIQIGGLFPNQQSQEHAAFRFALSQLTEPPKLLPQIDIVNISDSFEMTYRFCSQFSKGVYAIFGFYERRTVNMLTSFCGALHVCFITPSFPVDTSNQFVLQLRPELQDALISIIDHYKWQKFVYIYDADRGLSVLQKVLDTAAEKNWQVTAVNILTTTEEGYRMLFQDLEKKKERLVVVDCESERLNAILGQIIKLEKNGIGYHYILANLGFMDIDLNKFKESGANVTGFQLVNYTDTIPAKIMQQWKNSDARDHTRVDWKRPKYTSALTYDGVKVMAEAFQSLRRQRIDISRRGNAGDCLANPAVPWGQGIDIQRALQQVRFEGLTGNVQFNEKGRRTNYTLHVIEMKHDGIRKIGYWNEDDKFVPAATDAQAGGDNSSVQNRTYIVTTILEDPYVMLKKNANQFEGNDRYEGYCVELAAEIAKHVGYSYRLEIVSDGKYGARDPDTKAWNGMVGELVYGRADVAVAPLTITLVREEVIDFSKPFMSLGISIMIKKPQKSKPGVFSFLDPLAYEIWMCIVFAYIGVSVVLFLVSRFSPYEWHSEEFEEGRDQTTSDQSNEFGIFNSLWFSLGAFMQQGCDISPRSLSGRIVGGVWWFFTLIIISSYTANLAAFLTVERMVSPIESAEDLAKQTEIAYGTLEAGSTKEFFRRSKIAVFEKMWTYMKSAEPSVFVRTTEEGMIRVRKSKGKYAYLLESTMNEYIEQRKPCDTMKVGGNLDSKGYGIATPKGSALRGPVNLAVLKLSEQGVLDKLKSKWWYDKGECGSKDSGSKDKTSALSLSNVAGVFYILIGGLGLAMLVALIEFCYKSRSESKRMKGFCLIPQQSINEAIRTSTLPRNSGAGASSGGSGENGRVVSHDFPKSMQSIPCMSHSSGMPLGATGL", "T1 sequence (Q9Y698 whole entry partner)": "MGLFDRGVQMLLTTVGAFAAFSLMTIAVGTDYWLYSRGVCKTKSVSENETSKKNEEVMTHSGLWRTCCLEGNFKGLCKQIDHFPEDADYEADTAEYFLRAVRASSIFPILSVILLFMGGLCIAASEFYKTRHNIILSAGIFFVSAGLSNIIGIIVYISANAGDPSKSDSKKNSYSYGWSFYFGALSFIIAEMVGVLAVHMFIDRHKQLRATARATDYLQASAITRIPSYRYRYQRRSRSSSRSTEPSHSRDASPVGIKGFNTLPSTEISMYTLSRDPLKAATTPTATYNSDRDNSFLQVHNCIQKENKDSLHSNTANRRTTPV", "assay": "Assay of AMPA receptor potentiation by compounds, using calcium influx as an indicator", "format": "cell-based", "details": "compound 30 μM with glutamic acid final concentration 3 mM, 100% = glutamic acid 3 mM + 300 μM cyclothiazide, 0% = glutamic acid only, change over 3 minutes", "from_the_text": "(1) Construction of Expression Genes\nHuman GluR1 flip cDNA was amplified by PGR using the forward primer ACTGAATTCGCC […] (SEQ ID: 1), and the reverse primer CCGCGGC […] (SEQ ID: 2), which had been artificially synthesized using human brain-derived cDNA (BD Bioscience) as template. The amplified product was digested with the restriction enzymes EcoRI and NotI. (Takara Shuzo Co., Ltd.), and was then incorporated at the same site of peDNA3.1(+) (Invitrogen) to construct; the pcDNA3.1(+)/human GluR1 flip gene. Human stargazin cDNA was amplified by PCR using the forward primer GGTC TCGAGOCCACCATGGOGCTGTTTGATCGAGGTGTTCA (SEQ ID: δ 3), and the reverse primer […] (SEQ ID: 4), which had been artificially synthesized using human hippocampal cDNA as template. The amplified product was digested with the restriction enzymes XhoI and BamHI (Takara Shuzo Co., Ltd.), and was then incorporated at the same site of pcDNA3.1(−) (Invitrogen) to construct the pcDN.A3.1. Zeo(−)/human stargazin gene.\n(2) Construction of Cells Expressing GluR1 Flip/Stargazin\nCHO-K1 cells passaged in culture media (Ham's F12 media (Invitrogen) supplemented with […] inactivated fetal bovine serum (Morgate), penicillin, and streptomycin (Invitrogen)) were separated using 0.05% trypsin diluted with D-PBS(−), and 0.53 mM EDTA (Invitrogen). The separated cells were suspended in culture media and harvested by centrifugation at 1,000 rpm. The harvested cells were re-suspended in D-PBS(−) and introduced into a 0.4 cm electroporation cuvette (BioRad). The pcDNA3.1(+)/human GluR1 flip gene (5 μg) and pcDNA3.1 Zeo(−)/human stargazin gene (15 μg) were added, and were introduced into the CHO-K1 cells using a Gene Pulser II (BioRad) at 950 μFd and […]. The cells were incubated overnight in culture media, and on the next day 96-well plates were seeded with 250 cells/well using selection media (Zeocin (Invitrogen) in a concentration of 250 μg/mL in culture media). Drug resistant clones were selected, and clones expressing GluR1 flip/stargazin were selected by the following assay using calcium influx as an indicator.\n(3) Assay of AMPA receptor potentiation by compounds, using calcium influx as an indicator 96-well black-bottomed clear plates (Costar) were seeded with the CHO-K1/GluR1 flip/stargazin expressing cells (2×10^4 cells/well), and were incubated for 2 days at 37° C. in a CO2 incubator (Sanyo). The cell plate media was removed, and assay buffer A (D-MEM (Invitrogen), 0.1% BSA (Serological Protein, Inc.), and 20 mM HEPES (invitrogen)) was added to a concentration of 50 μL/well. A calcium indicator (Calcium Kit B-Fluo4 for TKB, Dojindo Laboratories) containing 2.5 mM probenecid (Dojindo Laboratories) was added to a concentration of 50 μL/well, and the plates were allowed to stand for 1 hour at 37° C. in a CO2 incubator. The cell plates were set up on a CellLux (PerkinElmer), a 50 pt mixture of 9 mM glutamic acid diluted (final concentration 3 mM) with assay buffer B (HBSS (Invitrogen), 0.1% BSA, and 20 mM HEPES) and the compound to be tested (concentration of compound to be detected: 30 μM) was added, and the change in the level of fluorescence over a period of 3 minutes was determined. The compound activity was calculated using the following equation, wherein the change in fluorescence in wells containing glutamic acid (final concentration 3 mM) and 300 μM cyclothiazide (TOCRIS) was defined as 100%, and the change in fluorescence in wells containing only glutamic acid (final concentration 3 mm) was defined as 0%.\nActivity (%)=(X−C)/(T−C)×1.00\nT: change in fluorescence in wells containing glutamic acid (final concentration 3 mM) and 300 μM cyclothiazide C: change in fluorescence in wells containing only glutamic acid (final concentration 3 mM) X: change in fluorescence in wells containing compound to be detected", "units": {"Activity (%) of AMPA receptor potentiation (change in fluorescence, calcium influx)": "%"}}
{"smiles": "NC(=O)c1c(NC(=O)Cn2nc(C(F)(F)F)c3c2CCNC3)sc2c1CCCC2", "note": "[Example 190, 2-({[3-(Trifluoromethyl)-4,5,6,7-tetrahydro-1H-pyrazolo[4,3-c]pyridin-1-yl]acetyl}amino)-4,5,6,7-tetrahydro-1-benzothiophene-3-carboxamide]", "Activity (%) of AMPA receptor potentiation (change in fluorescence, calcium influx)": 70}
{"smiles": "FC(F)(F)c1nn(Cc2nc(-c3cnccn3)no2)c2c1CCCC2", "note": "[Example 277, 1-[(3-Pyrazin-2-yl-1,2,4-oxadiazol-5-yl)methyl]-3-(trifluoromethyl)-4,5,6,7-tetrahydro-1H-indazole]", "Activity (%) of AMPA receptor potentiation (change in fluorescence, calcium influx)": 75}
{"smiles": "CNC(=O)N1CCc2c(c(C(F)(F)F)nn2CC(=O)Nc2cc(Cl)ccc2OC)C1", "note": "[Example 229, 1-{2-[(5-Chloro-2-methoxyphenyl)amino]-2-oxoethyl}-N-methyl-3-(trifluoromethyl)-1,4,6,7-tetrahydro-5H-pyrazolo[4,3-c]pyridine-5-carboxamide]", "Activity (%) of AMPA receptor potentiation (change in fluorescence, calcium influx)": 78}
{"smiles": "COc1ccc(Cl)cc1NC(=O)Cn1nc(C(F)(F)F)c2c1CNCC2", "note": "[Example 196, N-(5-Chloro-2-methoxyphenyl)-2-[3-(trifluoromethyl)-4,5,6,7-tetrahydro-1H-pyrazolo[3,4-c]pyridin-1-yl]acetamide]", "Activity (%) of AMPA receptor potentiation (change in fluorescence, calcium influx)": 80}
{"smiles": "O=C(c1csc(Cn2nc(C(F)(F)F)c3c2CCCC3)n1)N1CCCC1", "note": "[Example 145, 1-{[4-(Pyrrolidin-1-ylcarbonyl)-1,3-thiazol-2-yl]methyl}-3-(trifluoromethyl)-4,5,6,7-tetrahydro-1-H-indazole]", "Activity (%) of AMPA receptor potentiation (change in fluorescence, calcium influx)": 85}
{"smiles": "Cc1cc(C(F)(F)F)n2ncc(-c3noc(Cn4nc(C(F)(F)F)c5c4CCCC5)n3)c2n1", "note": "[Example 283, 5-Methyl-7-(trifluoromethyl)-3-(5-{[3-(trifluoromethyl)-4,5,6,7-tetrahydro-1H-indazol-1-yl]methyl}-1,2,4-oxadiazol-3-yl)pyrazolo[1,5-a]pyrimidine]", "Activity (%) of AMPA receptor potentiation (change in fluorescence, calcium influx)": 76}
{"smiles": "FC(F)(F)c1nn(Cc2nnc(-c3cccs3)o2)c2c1CCCC2", "note": "[Example 272, 1-[(5-Thiophen-2-yl-1,3,4-oxadiazol-2-yl)methyl]-3-(trifluoromethyl)-4,5,6,7-tetrahydro-1H-indazole]", "Activity (%) of AMPA receptor potentiation (change in fluorescence, calcium influx)": 86}
{"smiles": "Cc1cc(C)n2ncc(-c3noc(Cn4nc(C(F)(F)F)c5c4CCCC5)n3)c2n1", "note": "[Example 276, 5,7-Dimethyl-3-(5-{[3-(trifluoromethyl)-4,5,6,7-tetrahydro-1H-indazol-1-yl]methyl}-1,2,4-oxadiazol-3-yl)pyrazolo[1,5-a]pyrimidine]", "Activity (%) of AMPA receptor potentiation (change in fluorescence, calcium influx)": 79}
{"smiles": "CSc1sc(C(=O)NCCn2nc(C(F)(F)F)c3c2CCCC3)c2c1C(O)CCC2", "note": "(centres unmarked) [Example 287, 4-Hydroxy-3-(methylsulfanyl)-N-{2-[3-(trifluoromethyl)-4,5,6,7-tetrahydro-1H-indazol-1-yl]ethyl}-4,5,6,7-tetrahydro-2-benzothiophene-1-carboxamide]", "Activity (%) of AMPA receptor potentiation (change in fluorescence, calcium influx)": 68}
{"smiles": "FC(F)(F)c1nn(Cc2nc(-c3cccs3)no2)c2c1COCC2", "note": "[Example 279, 1-[(3-Thiophen-2-yl-1,2,4-oxadiazol-5-yl)-methyl]-3-(trifluoromethyl)-1,4,6,7-tetrahydropyrano[4,3-c]pyrazole]", "Activity (%) of AMPA receptor potentiation (change in fluorescence, calcium influx)": 62}
{"smiles": "COc1ccc(Cl)cc1NC(=O)Cn1nc(C(F)(F)F)c2c1CCN(C(C)=O)C2", "note": "[Example 226, 2-[5-Acetyl-3-(trifluoromethyl)-4,5,6,7-tetrahydro-1H-pyrazolo[4,3-c]pyridin-1-yl]-N-(5-chloro-2-methoxyphenyl)acetamide]", "Activity (%) of AMPA receptor potentiation (change in fluorescence, calcium influx)": 74}
{"smiles": "CSc1sc(C(=O)NCCn2nc(C(F)(F)F)c3c2CCCC3)c2nc(C)n(C)c12", "note": "[Example 280, 1,2-Dimethyl-6-(methylsulfanyl)-N-{2-[3-(trifluoromethyl)-4,5,6,7-tetrahydro-1H-indazol-1-yl]ethyl}-1H-thieno[3,4-d]imidazole-4-carboxamide]", "Activity (%) of AMPA receptor potentiation (change in fluorescence, calcium influx)": 86}
{"smiles": "NC(=O)c1c(NC(=O)Cn2nc(C(F)(F)F)c3c2CNCC3)sc2c1CCCC2", "note": "[Example 185, 2-({[3-(Trifluoromethyl)-4,5,6,7-tetrahydro-1H-pyrazolo[3,4-c]pyridin-1-yl]acetyl}amino)-4,5,6,7-tetrahydro-1-benzothiophene-3-carboxamide]", "Activity (%) of AMPA receptor potentiation (change in fluorescence, calcium influx)": 88}
{"smiles": "Cc1cc(C(F)(F)F)n2ncc(-c3noc(Cn4nc(C(F)(F)F)c5c4CCC5)n3)c2n1", "note": "[Example 278]", "Activity (%) of AMPA receptor potentiation (change in fluorescence, calcium influx)": 82}
